Data as given in patent US20240240224A1, “FLUORESCENT D-TYPE AMINO ACID METABOLISM MARKER-BASED METHOD FOR DETECTING ANTIBACTERIAL DRUG SENSITIVITY TEST” (priority 2020, published 2024).
In brackets after ≈: the same amount, converted by molar mass.

Key:
[1] = test system: Ec ATCC 25922; test: BMD susceptibility test; format: cell-based, Escherichia coli; settings: unit assumed
[2] = test system: P. aeruginosa Pa3; test: BMD susceptibility test; format: cell-based, Pseudomonas aeruginosa; settings: unit assumed
[3] = test system: Klebsiella pneumoniae KPN6; test: VITEK drug sensitivity test; format: cell-based; settings: unit assumed
[4] = test system: Pa ATCC 27853; settings: cited from earlier work
[5] = test system: P. aeruginosa Pa2; test: BMD susceptibility test; format: cell-based, Pseudomonas aeruginosa; settings: unit assumed
[6] = test system: K. pneumoniae Kp6; test: FaAST (FDAA metabolic labeling); format: cell-based, Klebsiella pneumoniae; settings: unit assumed
Description: (§1) The specific experimental steps are as follows: • 1. Take the colony to be tested that has been cultured overnight on the plate and fully mix it in normal saline to make a uniform bacterial solution. Dilute it into CAMHB medium to make a bacterial solution with OD600=0.05. • 2. Add 45 μl antibiotic solutions to be tested of different concentrations to 96-well plates (see Table 3 for antibiotic concentration gradient settings). • 3. Add 50 μl of bacterial solution prepared in Step 1 to the 96-well plate and mix well. • 4.5 μl of 10 mM Cy5-DAA probe was added to each well (final concentration was 0.15 mM, and its structure was shown in FIG. 1). After mixing, the probe was incubated for 2 hours in the dark. • 5. After dilution with 200 μl PBS solution, the fluorescence intensity of each sample was detected by flow cytometry.

[7] = test system: A. baumannii Ab19; test: FaAST (FDAA metabolic labeling); format: cell-based, Acinetobacter baumannii; settings: unit assumed
Description: as §1, with “cytometry. The flow detection results are shown in the attached FIG. 4-5, showing the curve of antibiotic concentration gradient and fluorescence intensity, and the MIC (minimum inhibitory concentration) is obtained by referring to this curve.” for “cytometry.”
(§2) Antibiotic resistant strains are shown in bold in the table below.

[8] = test system: E. coli Ec11; test: BMD susceptibility test; format: cell-based, Escherichia coli; settings: unit assumed
[9] = test system: E. coli Ec13; test: BMD susceptibility test; format: cell-based, Escherichia coli; settings: unit assumed
[10] = test system: Pa ATCC 27853; test: BMD susceptibility test; format: cell-based, Pseudomonas aeruginosa; settings: unit assumed
[11] = test system: Ec ATCC 25922; settings: cited from earlier work
[12] = test system: Klebsiella pneumoniae KPN6; test: FaAST with DAA-Tetra probe; format: cell-based; settings: unit assumed
Description: The specific experimental steps are as follows: • 1. The tested colonies cultured overnight on the plate were picked and mixed thoroughly in 2× Cation-Adjusted Mueller Hinton Broth medium (2×CAMHB) to make bacterial suspension with turbidity of OD600=0.1. • 2. […] Add 50 μL of the bacterial solution prepared in step 1 (the final concentration of the bacterial solution is OD600=0.05) to the 96-well plate, and add 5 μL of 3 mM DAA-Tetra probe (the final concentration is 0.15 mM), mix well, and incubate in the dark at 37° C. 120 rpm for 2 hours. • 4. After culture, dilute the mixed bacterial solution 10 times with PBS solution, and detect the fluorescence intensity of each sample with flow cytometry. The flow detection result is shown in FIG. 14-19, and the arrow is for the MIC value. The minimum inhibitory concentration of antibiotics was obtained according to the fluorescence signal intensity of flow detection, and the statistical results are shown in Table 6.

[13] = test system: E. coli Ec11; test: FaAST (FDAA metabolic labeling); format: cell-based, Escherichia coli; settings: unit assumed
Description: as §1, with “cytometry. The flow detection results are shown in the attached FIG. 4-5, showing the curve of antibiotic concentration gradient and fluorescence intensity, and the MIC (minimum inhibitory concentration) is obtained by referring to this curve.” for “cytometry.”
as §2

[14] = test system: Ec ATCC 25922; test: FaAST (FDAA metabolic labeling); format: cell-based, Escherichia coli; settings: unit assumed
Description: as §1, with “cytometry. The flow detection results are shown in the attached FIG. 4-5, showing the curve of antibiotic concentration gradient and fluorescence intensity, and the MIC (minimum inhibitory concentration) is obtained by referring to this curve.” for “cytometry.”
as §2

[15] = test system: K. pneumoniae Kp6; test: BMD susceptibility test; format: cell-based, Klebsiella pneumoniae; settings: unit assumed
[16] = test system: E. coli Ec13; test: FaAST (FDAA metabolic labeling); format: cell-based, Escherichia coli; settings: unit assumed
Description: as §1

[17] = test system: P. aeruginosa Pa2; test: FaAST (FDAA metabolic labeling); format: cell-based, Pseudomonas aeruginosa; settings: unit assumed
Description: as §1, with “cytometry. The flow detection results are shown in the attached FIG. 4-5, showing the curve of antibiotic concentration gradient and fluorescence intensity, and the MIC (minimum inhibitory concentration) is obtained by referring to this curve.” for “cytometry.”
as §2

[18] = test system: P. aeruginosa Pa3; test: FaAST (FDAA metabolic labeling); format: cell-based, Pseudomonas aeruginosa; settings: unit assumed
Description: as §1, with “cytometry. The flow detection results are shown in the attached FIG. 4-5, showing the curve of antibiotic concentration gradient and fluorescence intensity, and the MIC (minimum inhibitory concentration) is obtained by referring to this curve.” for “cytometry.”
as §2

[19] = test system: Pa ATCC 27853; test: FaAST (FDAA metabolic labeling); format: cell-based, Pseudomonas aeruginosa; settings: unit assumed
Description: as §1, with “cytometry. The flow detection results are shown in the attached FIG. 4-5, showing the curve of antibiotic concentration gradient and fluorescence intensity, and the MIC (minimum inhibitory concentration) is obtained by referring to this curve.” for “cytometry.”
as §2

[20] = test system: A. baumannii Ab19; test: BMD susceptibility test; format: cell-based, Acinetobacter baumannii; settings: unit assumed
[21] = test system: E. faecalis ATCC29212; test: BMD susceptibility test; format: cell-based, Enterococcus faecalis; settings: unit assumed
[22] = test system: S. aureus ATCC29213; test: BMD susceptibility test; format: cell-based, Staphylococcus aureus; settings: unit assumed
[23] = test system: S. aureus ATCC29213; settings: cited from earlier work
[24] = test system: E. faecalis ATCC29212; test: FaAST (FDAA metabolic labeling method); format: cell-based, Enterococcus faecalis; settings: unit assumed
Description: (§3) Take the colony to be tested that has been cultured overnight on the plate and fully mix it in normal saline to make a uniform bacterial solution. Dilute it into Cation-Adjusted Mueller Hinton Broth (CAMHB) culture medium to make a bacterial solution with OD600=0.05. • 2. Add 45 μl antibiotic solutions of different concentrations to 96-well plates (see Table 1 for antibiotic concentration gradient settings). • 3. Add 50 μl of the bacterial solution prepared in step 1 to the 96-well plate and mix well. • 4. Add 5 μl of 10 mM Cy5-DAA probe (final concentration 0.15 mM, see FIG. 1 for its structure) into each well, mix well, and cultivate in dark for 2 hours. • 5. Add 200 μl After PBS solution is diluted, the fluorescence intensity of each sample is detected by flow cytometry. The flow detection results are shown in FIG. 4-5, showing the curve of the change of antibiotic concentration gradient and fluorescence intensity. The MIC (minimum inhibitory concentration) can be obtained by referring to this curve.
(§4) Bacteria with antibiotic resistance are shown in bold in the following table.

[25] = test system: S. aureus Sa23; test: BMD susceptibility test; format: cell-based, Staphylococcus aureus; settings: unit assumed
[26] = test system: S. aureus Sa22; test: BMD susceptibility test; format: cell-based, Staphylococcus aureus; settings: unit assumed
[27] = test system: E. faecalis ATCC29212; settings: cited from earlier work
[28] = test system: E. faecium Ef28; test: FaAST (FDAA metabolic labeling method); format: cell-based, Enterococcus faecium; settings: unit assumed
Description: as §3, with “The flow detection results are shown in FIG. 4-5, showing the curve of the change of antibiotic concentration gradient and fluorescence intensity.” left out

[29] = test system: E. faecium Ef26; test: BMD susceptibility test; format: cell-based, Enterococcus faecium; settings: unit assumed
[30] = test system: S. aureus ATCC29213; test: FaAST (FDAA metabolic labeling method); format: cell-based, Staphylococcus aureus; settings: unit assumed
Description: as §3, §4

[31] = test system: S. aureus Sa22; test: FaAST (FDAA metabolic labeling method); format: cell-based, Staphylococcus aureus; settings: unit assumed
Description: as §3, §4

[32] = test system: S. aureus Sa23; test: FaAST (FDAA metabolic labeling method); format: cell-based, Staphylococcus aureus; settings: unit assumed
Description: as §3, §4

[33] = test system: E. faecium Ef28; test: BMD susceptibility test; format: cell-based, Enterococcus faecium; settings: unit assumed
[34] = test system: E. faecium Ef26; test: FaAST (FDAA metabolic labeling method); format: cell-based, Enterococcus faecium; settings: unit assumed
Description: as §3, §4

NCC[C@H](O)C(=O)N[C@@H]1C[C@H](N)[C@@H](O[C@H]2O[C@H](CN)[C@@H](O)[C@H](O)[C@H]2O)[C@H](O)[C@H]1O[C@H]1O[C@H](CO)[C@@H](O)[C@H](N)[C@H]1O [Amikacin]
BMD (MIC) [1]: 1 µg/mL | BMD (MIC) [2]: 4 µg/mL | MIC, VITEK [3]: 0.5 µg/mL (≈ 0.854 µM) | CLSI QC range [4]: 1-4 | BMD (MIC) [5]: 2 µg/mL | FaAST (MIC) [6]: 0.5 µg/mL | FaAST (MIC) [7]: 2 µg/mL | BMD (MIC) [8]: 4 µg/mL | BMD (MIC) [9]: 2 µg/mL | BMD (MIC) [10]: 2 µg/mL | CLSI QC range [11]: 0.5-4^ | MIC, FaAST [12]: 0.5 µg/mL (≈ 0.854 µM) | FaAST (MIC) [13]: 8 µg/mL | FaAST (MIC) [14]: 2 µg/mL | BMD (MIC) [15]: 0.5 µg/mL | FaAST (MIC) [16]: 1 µg/mL | FaAST (MIC) [17]: 0.5 µg/mL | FaAST (MIC) [18]: 8 µg/mL | FaAST (MIC) [19]: 4 µg/mL | BMD (MIC) [20]: 2 µg/mL

teicoplanin
BMD (MIC) [21]: ≤ 0.25 µg/mL | BMD (MIC) [22]: ≤ 0.25 µg/mL | CLSI QC range [23]: 0.25-1^ | FaAST (MIC) [24]: 0.5 µg/mL | BMD (MIC) [25]: 0.5 µg/mL | BMD (MIC) [26]: 0.5 µg/mL | CLSI QC range [27]: 0.25-1 | FaAST (MIC) [28]: 32 µg/mL | BMD (MIC) [29]: 0.5 µg/mL | FaAST (MIC) [30]: 0.25 µg/mL | FaAST (MIC) [31]: 1 µg/mL | FaAST (MIC) [32]: 1 µg/mL | BMD (MIC) [33]: 16 µg/mL | FaAST (MIC) [34]: 0.25 µg/mL
